Where no end group is shown, it is not given here.
Key:
insulin [1] = molecular target: T1, insulin (Homo sapiens, UniProt P01308); test: Binding of 125I-insulin to various immobilized peptides; details: peptide immobilized from 5 ug/ml; 2 nM 125I-insulin
Protocol: The binding specificity of iodinated insulin for immobilized peptides was determined. Peptides of various sequences and sizes were immobilized in microtitre wells, as described in Example 1. The peptides utilized were IBP (CVEEAS) and a series of control peptide having the following designations and amino acid sequences: S28, TTHYQKG; S79, AQGHRPQDEG; S81, YGSLPQKAQGHRPQDEG; S82, THYGSLPQKAQGHRPQDEG; and EAE, FSWGAEGQR.
Peptides were dissolved in buffer at a concentration of 5 ug/ml, and immobilized in the wells of the microtitre plate. The immobilized peptides were then incubated with 2 nM ^125 I-insulin in the absence or presence of 3 uM unlabeled insulin, as described above. The specific binding of insulin to immobilized peptide is indicated, alone with the binding as a percentage of the binding of insulin to immobilized IBP. The peptides utilized are indicated on the abcissa. The respective relative binding of insulin (shown in FIG. 5) was IBP-100%, S28-0.3%, S79-1.5%, S81-0.6%, S82-0.2% and EAE-0.3%.

insulin [2] = molecular target: T1, insulin; test: Binding of 125I-insulin to immobilized IBP in microtitre wells
Protocol: Insulin Binding Peptide, synthesized by OCS Laboratories, Inc., Denton, Tex., was immobilized in the wells of flexible, U-bottom 96-well polyvinyl chloride microtitre plates (Falcon, Becton Dickinson Labware). To each well was added 100 ul of the peptide (5 ug/ml in 0.1 M sodium carbonate, pH 9.6). The peptide was allowed to adsorb to the well overnight at 4° C. Unreacted sites in the wells were blocked with 150 ul of 1% ovalbumin (Sigma Chemical Co.) in 0.1M sodium carbonate, pH 9.6, for 1 h at room temperature. The wells were washed two times with phosphate-buffered saline (PBS) containing 0.1% BSA (Fraction V, Sigma Chemical Co.), and then incubated with ^125 I-insulin in PBS, 0.1% BSA, for 3 h at room temperature. The wells were then washed 3 times with PBS-0.1% BSA, and were then excised from the plate and counted in a gamma counter. Total binding of insulin to the IBP was determined with iodinated insulin alone. Nonspecific binding was determined in the presence of radiolabeled insulin plus 3 uM unlabeled insulin. Specific binding was calculated as the difference between total and nonspecific binding. All values are reported as specific binding, unless otherwise indicated. All determinations (both total and nonspecific) were performed in triplicate. Insulin was iodinated by the method of Chloramine T, as previously described (Gavin et al., Proc. Nat. Acad. Sci., Vol. 71, p. 84-88 (1974)).
The peptide was immobilized in the bottom of 96-well microtitre plates, and at zero time, 2 nM ^125 I-insulin, in the absence or presence of 3 uM unlabeled insulin, was added to each of the wells. At the indicated times, the wells were washed with cold PBS, the washed wells were cut from the dish and counted for radioactivity. The indicated data points are average values of specifically bound insulin, and the error bars indicate the range of the data. At 25° C., the binding attained equilibrium within 1.5 h, with a half-time of approximately 20 min. At 4° C., the binding process is slightly slower, requiring approximately 2 h to attain an equilibrium level of binding.
The peptide was immobilized in the bottom of 96-well microtitre plates, and ^125 I-insulin, in the absence or presence of 3 uM unlabeled insulin, was added to the wells. Following incubation at 25° C. for 3 h, the wells were washed, cut from the dish, and counted, as described above. The indicated data points of FIG. 2 are average values of specifically bound insulin, the error bars indicate the range of the data.

[3] = Binding of iodinated polypeptide hormones to immobilized IBP; details: 2 nM iodinated hormone; room temperature 3 h
Protocol: The specificity of the binding of IBP to insulin was determined by incubating iodinated calcitonin, parathyroid hormone or atrial naturiuretic peptide with immobilized IBP. The binding of insulin to IBP appears to be a specific process. The specific binding of the low molecular weight polypeptide hormones calcitonin, parathyroid hormone and atrial naturiuretic peptide is less than 1% of the level of the specific binding of insulin (Ins) to IBP. The insulin-binding peptide was immobilized in the bottom of 96-well microtitre plates. To the wells were then added 2 nM iodinated polypeptide hormones in the absence or presence of at least a 1000-fold excess of unlabeled hormone. Following incubation at room temperature for 3 h, the wells were washed, excised from the plate and ^125 I measured as described above. The specific binding of hormone to the wells is indicated, along with the binding as a percentage of the binding of insulin to the wells. The polypeptide hormones utilized are indicated on the abcissa: Cal, calcitonin; PTH, parathyroid hormone; ANP, atrial naturiuretic peptide; Ins, insulin.

T1 sequence (P01308 25-54 limits assumed, species assumed): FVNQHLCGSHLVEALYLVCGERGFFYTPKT
T1 sequence (P01308 90-110 partner limits assumed, species assumed): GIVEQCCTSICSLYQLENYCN

Row | Substance | relative binding of insulin to immobilized peptide, as percentage of binding to immobilized IBP (insulin [1]) [%] | specific binding to IBP as percentage of the specific binding of insulin [3] | further results
1 | CVEEAS [IBP, NH2 -Cys-Val-Glu-Glu-Ala-Ser-COOH] | – | – | time to attain an equilibrium level of binding (insulin [2]; 4° C., 2 nM 125I-insulin): approximately 2 h; half-time of binding (insulin [2]; 25° C., 2 nM 125I-insulin): approximately 20 min; time for binding to attain equilibrium (insulin [2]; 25° C., 2 nM 125I-insulin): ≤ 1.5 h; Kd (insulin [2]; IBP immobilized on plastic surface, 125I-insulin, 25° C. for 3 h, read-out: Kd of insulin binding to immobilized IBP (Scatchard)): 3 nM
2 | FSWGAEGQR [EAE, FSWGAEGQR] | 0.3 | – | –
3 | atrial naturiuretic peptide | – | less than 1% | –
4 | calcitonin | – | less than 1% | –
5 | parathyroid hormone | – | less than 1% | –

Further lines, with some results ahead:

Row | relative binding of insulin to immobilized peptide, as percentage of binding to immobilized IBP (insulin [1]) [%] | specific binding to IBP as percentage of the specific binding of insulin [3] | Substance | further results
6 | 1.5 | – | AQGHRPQDEG [S79, AQGHRPQDEG] | –
7 | 0.2 | – | THYGSLPQKAQGHRPQDEG [S82, THYGSLPQKAQGHRPQDEG] | –
8 | 0.3 | – | TTHYQKG [S28, TTHYQKG] | –
9 | 0.6 | – | YGSLPQKAQGHRPQDEG [S81, YGSLPQKAQGHRPQDEG] | –

Reference: US4888414A, “Insulin-binding peptides and uses thereof” (Board of Regents, University of Texas System, priority 1987, dated 1989)
